The values below come from US7598278B2, “Administration of pyridinedicarboxylic acid compounds for stimulating or inducing the growth of human keratinous fibers and/or arresting their loss” (L'Oreal, priority 2002, dated 2009).

Assay [1] deals with men exhibiting androgenetic alopecia of stage III to V according to the Hamilton classification. To be noted: for No. of hairs/per cm^2 (DE): mean ± standard deviation. The procedure: Pyridine-2,4-dicarboxylic acid was tested in the form of the Na double salt formulated at a concentration of 5% in an aqueous/alcoholic lotion.
The evaluation of the effectiveness of the treatments was carried out by determining the total pilar density of hairs per cm^2 (DE) using the phototrichogram technique. This examination was carried out before treatment (M0) and after 3 months of treatment (M3).

For another assay, the system named is proline hydroxylase. To be noted: K. Majamaa et al., Eur. J. Biochem., 138, 1984, 239-245; cited from earlier work.
Assay [2] concerns men exhibiting androgenetic alopecia of stage III to V according to the Hamilton classification. Kind of assay: 1st study: in vivo activity, total pilar density of hairs per cm^2 (DE) by phototrichogram. The arrangement: species or system human. To be noted: for No. of hairs/per cm^2 (DE): mean ± standard deviation. The source says: It was studied at a concentration of 2%, formulated in a ternary lotion based on propylene glycol, ethanol and water.

Where two headings read alike, the source gives them in different places.

As for `O=C([O-])c1ccnc(C(=O)[O-])c1.[Na+].[Na+]` [Na disalt of Pyridine-2,4-dicarboxylic acid], the “hair loss (decrease in total density) compared with placebo areas, times smaller” value in assay [1] (5% lotion, 3 months, versus placebo areas) amounted to 4 times. The “No. of hairs/per cm^2 (DE)” value in assay [1] (M0, before treatment, scalp area to receive 5% aqueous/alcoholic lotion, 22 men) was found to be 249 ± 50 hairs/per cm^2; in assay [1] (M3, after 3 months, 5% aqueous/alcoholic lotion, 30 μl once daily, 5 days per week, topical on scalp) it was 246 ± 50 hairs/per cm^2. The “DE variation (%)” value in assay [1] (mean of the variation at M3 with respect to M0, 5% lotion, 30 μl once daily, 5 days per week, 3 months) is −0.97%.

Regarding `O=C(O)c1ccnc(C(=O)O)c1` [Pyridine-2,4-dicarboxylic acid], in the assay with proline hydroxylase, the “inhibition of proline hydroxylase (in words)” value is recorded as “very weak inhibitors”. For the same molecule, the “change of total density of treated areas (in words)” value in assay [2] (2% lotion, 3 months, placebo areas do not change) is “increase in the total density”. In addition, the “No. of hairs/per cm^2 (DE)” value in assay [2] (M0, before treatment, scalp area to receive 2% lotion (propylene glycol, ethanol, water), 25 men) is listed as 213 ± 45 hairs/per cm^2; in assay [2] (M3, after 3 months, 2% lotion, 30 μl once daily, 5 days per week, topical on scalp), 224 ± 53 hairs/per cm^2. The “DE variation (%)” value in assay [2] (M3 with respect to M0, 2% lotion, 30 μl once daily, 5 days per week, 3 months) was determined as 4.4%.

With `O=C(O)c1ccc(C(=O)O)nc1` [pyridine-2,5-dicarboxylic acids, pyridine-2,5-dicarboxylic acid], the “inhibition of proline hydroxylase (in words)” value with proline hydroxylase is reported as “very weak inhibitors”.
